From article PMC554093, “L-histidine inhibits production of lysophosphatidic acid by the tumor-associated cytokine, autotaxin” (Lipids in Health and Disease, 2005)

How the values were obtained:
Format in all cases: biochemical
[1] = molecular target: T1, autotaxin (ATX, NPP-2, lysophospholipase D) (Homo sapiens, UniProt Q13822); assay: LPLD activity (choline release from LPC) and PDE activity (pNp-TMP) with purified recombinant ATX; parameters: gene ENPP2; recombinant human ATX (vATX), cloned from an MDA-MB-435 cell library
[2] = molecular target: T1, autotaxin (ATX, NPP-2, lysophospholipase D); assay: LPLD enzyme kinetics (choline release), Km; parameters: gene ENPP2; recombinant human ATX (vATX)
[3] = molecular target: T1, autotaxin (ATX, NPP-2, lysophospholipase D); assay: LPLD activity (choline release from LPC), […] compound, […] reduction; parameters: gene ENPP2; recombinant human ATX (vATX); conditions: read-out: % reduction at 15 mM
[4] = molecular target: T1, autotaxin (ATX, NPP-2, lysophospholipase D); assay: LPLD activity (choline release from LPC), […] compound, […] reduction; methyl on the alpha nitrogen; parameters: gene ENPP2; recombinant human ATX (vATX); conditions: read-out: % reduction at 15 mM
[5] = molecular target: T1, autotaxin (ATX, NPP-2, lysophospholipase D); assay: LPLD activity (choline release from LPC), […] compound, about […] reduction; parameters: gene ENPP2; recombinant human ATX (vATX); conditions: read-out: % reduction at 15 mM
[6] = molecular target: T1, autotaxin (ATX, NPP-2, lysophospholipase D); assay: as above; parameters: gene ENPP2; recombinant human ATX (vATX); conditions: read-out: % reduction at 15 mM; remark: listed apart in the source

**Q.** How did the IC50 [1] turn out when `N[C@@H](Cc1c[nH]cn1)C(=O)O` [L-histidine] was run?
**A.** 4 ± 1.1 mM

**Q.** LPC (18:1) was tested. Which Km [2] did it give?
**A.** 490 ± 50 µM

**Q.** For `COC(=O)[C@@H](N)Cc1c[nH]cn1` [histidine methyl ester], which inhibition at 15000 µM [3] is on record?
**A.** 65%

**Q.** Which inhibition at 15000 µM [4] does the source give for `CN[C@@H](Cc1c[nH]cn1)C(=O)O` [N-methyl histidine] here?
**A.** 30%

**Q.** For `NC(=O)[C@@H](N)Cc1c[nH]cn1` [histidinamide], which inhibition at 15000 µM [5] is on record?
**A.** ~20%

**Q.** `N[C@H](Cc1c[nH]cn1)C(=O)O` [D-histidine] was tested. Which inhibition at 15000 µM [6] did it give?
**A.** ~75%
